The structures appear in SMILES notation. A value given as a limit tells only on which side of the number the result lay.

T1 sequence (Q5S007 970-2527 limits assumed): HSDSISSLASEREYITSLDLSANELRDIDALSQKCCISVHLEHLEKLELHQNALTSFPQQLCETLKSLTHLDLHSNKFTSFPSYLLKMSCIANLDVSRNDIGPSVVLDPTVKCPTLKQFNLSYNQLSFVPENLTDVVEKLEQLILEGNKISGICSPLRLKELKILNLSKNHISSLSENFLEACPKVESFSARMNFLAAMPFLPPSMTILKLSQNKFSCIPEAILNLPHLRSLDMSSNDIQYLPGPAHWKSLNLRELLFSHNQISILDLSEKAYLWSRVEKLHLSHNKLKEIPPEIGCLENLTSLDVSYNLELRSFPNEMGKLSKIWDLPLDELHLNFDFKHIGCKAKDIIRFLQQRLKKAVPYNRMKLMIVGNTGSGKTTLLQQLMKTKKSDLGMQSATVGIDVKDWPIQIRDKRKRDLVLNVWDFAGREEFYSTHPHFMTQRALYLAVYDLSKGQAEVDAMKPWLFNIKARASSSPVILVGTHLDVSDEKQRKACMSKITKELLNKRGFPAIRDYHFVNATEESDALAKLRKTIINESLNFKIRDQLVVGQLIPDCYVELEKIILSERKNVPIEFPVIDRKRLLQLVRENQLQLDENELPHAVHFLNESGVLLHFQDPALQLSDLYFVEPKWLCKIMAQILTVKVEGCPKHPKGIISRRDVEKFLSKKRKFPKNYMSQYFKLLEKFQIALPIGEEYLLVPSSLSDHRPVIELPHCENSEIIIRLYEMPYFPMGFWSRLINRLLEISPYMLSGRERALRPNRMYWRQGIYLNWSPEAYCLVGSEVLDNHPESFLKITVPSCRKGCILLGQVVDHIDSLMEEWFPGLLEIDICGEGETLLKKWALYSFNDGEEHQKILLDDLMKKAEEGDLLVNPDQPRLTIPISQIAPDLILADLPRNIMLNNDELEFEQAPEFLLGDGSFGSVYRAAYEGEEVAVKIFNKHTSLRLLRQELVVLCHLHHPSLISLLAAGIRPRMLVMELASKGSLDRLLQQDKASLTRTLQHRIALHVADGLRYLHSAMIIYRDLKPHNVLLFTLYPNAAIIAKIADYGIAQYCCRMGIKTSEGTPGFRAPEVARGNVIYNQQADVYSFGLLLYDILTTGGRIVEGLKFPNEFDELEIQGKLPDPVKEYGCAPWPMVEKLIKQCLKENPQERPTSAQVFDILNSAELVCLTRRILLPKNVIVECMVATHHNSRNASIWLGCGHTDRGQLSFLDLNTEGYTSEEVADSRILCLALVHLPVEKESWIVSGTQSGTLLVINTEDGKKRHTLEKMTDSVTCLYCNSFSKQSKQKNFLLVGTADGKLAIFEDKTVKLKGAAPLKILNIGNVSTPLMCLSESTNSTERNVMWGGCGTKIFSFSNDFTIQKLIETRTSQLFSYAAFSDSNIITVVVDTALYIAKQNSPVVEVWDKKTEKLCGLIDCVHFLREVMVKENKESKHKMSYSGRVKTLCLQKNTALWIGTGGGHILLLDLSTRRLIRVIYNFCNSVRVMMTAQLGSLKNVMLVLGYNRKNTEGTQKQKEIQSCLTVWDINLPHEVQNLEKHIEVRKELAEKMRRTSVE

The test addresses T1, wt human LRRK2 (Homo sapiens, UniProt Q5S007).
T1 construct: wt human LRRK2, catalytic site, catalytic site (ThermoFisher/USA); purchased ThermoFisher
Description: TR-FRET LanthaScreen Tb Kinase Activity Assay, inhibition of LRRK2 kinase. The class given is biochemical. Conditions: 2 nM wt human LRRK2, 400 nM fluorescein-ERM (LRRKtide) peptide, 38 µM ATP, 15 min pre-incubation, 120 min at room temperature. On the procedure: In Table 2, activity is provided as the following: “+++”=IC50 less than 50 nM; “++”=IC50 between 50 nM and 200 nM; “+”=IC50> or =200 nM.
The compounds listed in Table 2 were tested for their inhibitory effect on LRRK2 kinase according to the following procedures.
The protocol for basic TR-FRET LanthaScreen Tb Kinase Activity Assay inhibitor studies were as follows. LanthaScreen Kinase Activity Assays (ThermoFisher/USA) to evaluate inhibitors were performed by addition of 100 nl of test compound in corresponding DMSO dilutions/5 μl of kinase/fluorescein-ERM(LRRKtide) peptide mixture, Compound & kinase were pre-incubated for 15 minutes, then 5 μl of ATP into 384 well small volume plates. After incubation for 120 minutes at room temperature, the detection reagents containing Tb-anti-pLRRKtide antibody were added to monitor phosphorylation level of peptide. Then, after 60 min minutes incubation at room temperature plates were read in Envision. Data analysis of emission ratios was according to LanthaScreen Tb Kinase Activity Assay protocol.
Kinase and assay components were adjusted to final concentrations according to the kit protocol. For LRRK2: 2 nM wt human LRRK2, catalytic site, catalytic site (ThermoFisher/USA), 400 nM peptide, 38 µM ATP in 1× Kinase Buffer A.
Basic protocol for TR-FRET LanthaScreen Tb Kinase Activity Assay inhibitor studies involved two steps:
Enzymatic step: Addition of […] of test compound in corresponding DMSO dilutions, 5 μL of kinase/substrate mixture, 5 μL of ATP into 384 well small volume plates. Incubation for 120 minutes at room temperature.
Detection step: Addition of 10 μL EDTA & antibody, read plate after 60 minutes. Data analysis of emission ratios according to KinEASE assay protocol.
Kinase and assay components were adjusted to final concentrations according to the kit protocol.
The term IC50 denotes the concentration at which inhibition is half-maximal. A low value points to greater potency. Turning to `Fc1cccc(F)c1C1=Nc2c(Cl)cnn2-c2cc(N3CC4(COC4)C3)ccc2N1` [6-[3-chloro-5-(2,6-difluorophenyl)-6H-pyrazolo[1,5-a][1,3,5]benzotriazepin-9-yl]-2-oxa-6-azaspiro[3.3]heptane], the IC50 is below 50 nM.

`Fc1cccc(F)c1C1=Nc2c(Cl)cnn2-c2cc(N3C4COCC3C4)ccc2N1` [6-[3-chloro-5-(2,6-difluorophenyl)-6H-pyrazolo[1,5-a][1,3,5]benzotriazepin-9-yl]-3-oxa-6-azabicyclo[3.1.1]heptane] displayed an IC50 below 50 nM.

For `Fc1cccc(F)c1C1=Nc2c(Cl)cnn2-c2cc(N3CCC4(CC3)COC4)ccc2N1` [7-[3-chloro-5-(2,6-difluorophenyl)-6H-pyrazolo[1,5-a][1,3,5]benzotriazepin-9-yl]-2-oxa-7-azaspiro[3.5]nonane], the concentration for half-maximal inhibition (IC50) was below 50 nM.

The compound `Fc1cccc(F)c1C1=Nc2c(Cl)cnn2-c2cc(N3C4CCC3COC4)ccc2N1` [8-[3-chloro-5-(2,6-difluorophenyl)-6H-pyrazolo [1,5-a][1,3, 5]benzotriazepin-9-yl]-3-oxa-8-azabicyclo [3.2.1]octane] registered a half-maximal inhibitory concentration (IC50) below 50 nM.

With `Fc1cccc(F)c1C1=Nc2c(Cl)cnn2-c2cc(Br)ccc2N1` [9-bromo-3-chloro-5-(2,6-difluorophenyl)-6H-pyrazolo[1,5-a][1,3,5]benzotriazepine], the 50% inhibitory concentration (IC50) was below 50 nM.

Regarding `Fc1cccc(F)c1C1=Nc2c(Cl)cnn2-c2cc(N3C[C@H]4C[C@@H]3CO4)ccc2N1` [(1R,4R)-5-[3-chloro-5-(2,6-difluorophenyl)-6H-pyrazolo[1,5-a][1,3,5]benzotriazepin-9-yl]-2-oxa-5-azabicyclo[2.2.1]heptane], the IC50 is below 50 nM.

Turning to `Fc1cccc(F)c1C1=Nc2c(Cl)cnn2-c2cc(N3C[C@H]4CC[C@@H]3CO4)ccc2N1` [(1R,4R)-5-[3-chloro-5-(2,6-difluorophenyl)-6H-pyrazolo[1,5-a][1,3,5]benzotriazepin-9-yl]-2-oxa-5-azabicyclo[2.2.2]octane], the IC50 was below 50 nM.

With `Fc1cccc(F)c1C1=Nc2c(Cl)cnn2-c2cc(N3C[C@H]4C[C@@H]3CO4)ncc2N1` [(1R,4R)-5-[5-chloro-8-(2,6-difluorophenyl)-2,3,7,9,12-pentazatricyclo[8.4.0.02,6]tetradeca-1(10),3,5,7,11,13-hexaen-13-yl]-2-oxa-5-azabicyclo[2.2.1]heptane], the IC50 is below 50 nM.

As to `Fc1cccc(F)c1C1=Nc2c(Cl)cnn2-c2cc(N3C[C@H]4CC[C@@H](C3)O4)ccc2N1` [(1R,5S)-3-[3-chloro-5-(2,6-difluorophenyl)-6H-pyrazolo[1,5-a][1,3,5]benzotriazepin-9-yl]-8-oxa-3-azabicyclo[3.2.1]octane], the IC50 was below 50 nM.

With `Fc1cccc(F)c1C1=Nc2c(Cl)cnn2-c2cc(N3C[C@@H]4C[C@H]3CO4)ccc2N1` [(1S,4S)-5-[3-chloro-5-(2,6-difluorophenyl)-6H-pyrazolo[1,5-a][1,3,5]benzotriazepin-9-yl]-2-oxa-5-azabicyclo[2.2.1]heptane], the 50% inhibitory concentration (IC50) was below 50 nM.

In turn, `C[C@@H]1CN(c2ccc3c(c2)-n2ncc(Cl)c2N=C(c2c(F)cccc2F)N3)C[C@@H](C)O1` [(2R,6R)-4-(3-chloro-5-(2,6-difluorophenyl)-6H-benzo[f]pyrazolo[1,5-a][1,3,5]triazepin-9-yl)-2,6-dimethylmorpholine] had an IC50 below 50 nM.

`C[C@@H]1CN(c2ccc3c(c2)-n2ncc(Cl)c2N=C(c2c(F)cccc2F)N3)C[C@H](C)O1` [(2R,6S)-4-(3-chloro-5-(2,6-difluorophenyl)-6H-benzo[f]pyrazolo[1,5-a][1,3,5]triazepin-9-yl)-2,6-dimethylmorpholine]: the IC50 was in the range of 50 to 200 nM.

The compound `C[C@H]1CN(c2ccc3c(c2)-n2ncc(Cl)c2N=C(c2c(F)cccc2F)N3)C[C@H](C)O1` [(2S,6S)-4-(3-chloro-5-(2,6-difluorophenyl)-6H-benzo[f]pyrazolo[1,5-a][1,3,5]triazepin-9-yl)-2,6-dimethylmorpholine] yielded an IC50 below 50 nM.

Regarding `C[C@H]1CN(c2cc3c(cn2)NC(c2c(F)cccc2F)=Nc2c(F)cnn2-3)C[C@H](C)O1` [(2S,6S)-4-(5-(2,6-difluorophenyl)-3-fluoro-6H-pyrazolo[1,5-a]pyrido[3,4-f][1,3,5]triazepin-9-yl)-2,6-dimethylmorpholine], the IC50 lay in the range of 50 to 200 nM.

The compound `C[C@H]1CN(c2cc3c(cn2)NC(c2c(F)cccc2F)=Nc2ccnn2-3)C[C@H](C)O1` [(2S,6S)-4-(5-(2,6-difluorophenyl)-6H-pyrazolo[1,5-a]pyrido[3,4-f][1,3,5]triazepin-9-yl)-2,6-dimethylmorpholine] yielded an IC50 below 50 nM.

In turn, `C[C@H]1CN(c2cc3c(cn2)NC(c2c(F)cccc2F)=Nc2c(Cl)cnn2-3)C[C@H](C)O1` [(2S,6S)-4-[5-chloro-8-(2,6-difluorophenyl)-2,3,7,9,12-pentazatricyclo[8.4.0.02,6]tetradeca-1(10),3,5,7,11,13-hexaen-13-yl]-2,6-dimethyl-morpholine] showed a half-maximal inhibitory concentration (IC50) below 50 nM.

As for `C[C@@H]1COCCN1c1ccc2c(c1)-n1ncc(Cl)c1N=C(c1c(F)cccc1F)N2` [(3R)-4-[3-chloro-5-(2,6-difluorophenyl)-6H-pyrazolo[1,5-a][1,3,5]benzotriazepin-9-yl]-3-methyl-morpholine], the IC50 was below 50 nM.

In the case of `C[C@H]1COCCN1c1ccc2c(c1)-n1ncc(Cl)c1N=C(c1c(F)cccc1F)N2` [(3S)-4-[3-chloro-5-(2,6-difluorophenyl)-6H-pyrazolo[1,5-a][1,3,5]benzotriazepin-9-yl]-3-methyl-morpholine], the IC50 is below 50 nM.

In the case of `C[C@H]1CN(c2cc3c(cn2)NC(c2c(F)cccc2F)=Nc2c(F)cnn2-3)CCO1` [(S)-4-(5-(2,6-difluorophenyl)-3-fluoro-6H-pyrazolo[1,5-a]pyrido[3,4-f][1,3,5]triazepin-9-yl)-2-methylmorpholine], the 50% inhibitory concentration (IC50) was below 50 nM.

In turn, `C[C@H]1CN(c2cc3c(cn2)NC(c2c(F)cccc2F)=Nc2ccnn2-3)CCO1` [(S)-4-(5-(2,6-difluorophenyl)-6H-pyrazolo[1,5-a]pyrido[3,4-f][1,3,5]triazepin-9-yl)-2-methylmorpholine] registered an IC50 below 50 nM.

As for `CC(C)(O)c1ccc2c(c1)-n1ncc(Cl)c1N=C(c1c(F)cccc1F)N2` [Methyl 2-[3-chloro-5-(2,6-difluorophenyl)-6H-pyrazolo[1,5-a][1,3,5]benzotriazepin-9-yl]propan-2-ol], the IC50 lay within 50 to 200 nM.

`COC(=O)c1ccc2c(c1)-n1ncc(Cl)c1N=C(c1c(F)cccc1F)N2` [Methyl 3-chloro-5-(2,6-difluorophenyl)-6H-pyrazolo[1,5-a][1,3,5]benzotriazepine-9-carboxylate] gave an IC50 below 50 nM.

`O=C(O)c1ccc2c(c1)-n1ncc(Cl)c1N=C(c1c(F)cccc1F)N2` [Methyl 3-chloro-5-(2,6-difluorophenyl)-6H-pyrazolo[1,5-a][1,3,5]benzotriazepine-9-carboxylic acid] showed an IC50 above 200 nM.

For `COC(=O)c1cnc2c(c1)-n1ncc(Cl)c1N=C(c1c(F)cccc1F)N2` [Methyl 5-chloro-8-(2,6-difluorophenyl)-2,3,7,9,11-pentazatricyclo[8.4.0.02,6]tetradeca-1(10),3,5,7,11,13-hexaene-13-carboxylate], the IC50 is below 50 nM.

For `CC(C)(C)NC(=O)c1ccc2c(c1)-n1ncc(Cl)c1N=C(c1c(F)cccc1F)N2` [N-(tert-butyl)-3-chloro-5-(2,6-difluorophenyl)-6H-benzo[f]pyrazolo[1,5-a][1,3,5]triazepine-9-carboxamide], the IC50 was below 50 nM.

Source of the values: patent publication US20260347361A1, “LRRK2 INHIBITORS AND USES THEREOF” (NEURON23, INC, priority 2022, published 2026).
